Source: US4565865A, “Phospholipid carbamates” (Takeda Chemical Industries, Ltd., priority 1980, dated 1986)
In brackets after ≈: the same amount, converted by molar mass. Read-outs that look alike come from different tables or passages of the source.

Tests used:
Type in all cases: cell-based
Tetrahymena pyriformis W = test: Antiprotozoal activity, MIC by serial broth dilution technique; conditions: 28° C., 44-48 hours, tryptose peptone medium, pH 7.0; for MIC: Tetrahymena pyriformis
Cryptococcus neoformans = test: Antifungal activity, paper disc zone of inhibition; conditions: 37° C., 2 days, agar, 8 mm paper disc, 2 mg/ml solution; for zone of inhibition at 2000 µg/mL: Cryptococcus neoformans, 48 h
Procedure: For the antifungal activity data given in Table 1, Cryptococcus neoformans is used as the test microorganism and incubated at 37° C. for 2 days in an agar medium with a paper disc (8 mm in diameter) immersed in an aqueous 2 mg/ml solution of a test compound and air-dried as placed on said medium, and the zone of inhibition is measured. The judgement criteria are as follows: "-" means less than 9 mm in inhibition zone diameter, "±" means 9-11 mm, "+" means 12-20 mm, and "++" means more than 20 mm.

[1] = system: human promyelocytic leukemia cells HL-60; test: Growth inhibition (GD50) of human promyelocytic leukemia HL-60 cells
Pyricularia oryzae = test: microbe, parasite or virus in culture
Cochliobolus miyabeanus = test: Antifungal activity, MIC by serial dilution in agar; conditions: Bipolaris oryzae
Aspergillus = test: as above; conditions: 1% glucose bouillon agar
Procedure: (§1) For the antifungal activity data shown in Table 2, various typical plant-disease-causing fungi are used as the test fungi and the minimum inhibitory concentration (MIC) are determined by the serial dilution technique using a 1% glucose bouillon agar medium.

Botrytis cinerea = test: as above; conditions: 1% glucose bouillon agar
Procedure: as §1

Gibberella fujikuroi = test: as above; conditions: Fusarium fujikuroi, 1% glucose bouillon agar
Procedure: as §1

Penicillium = test: as above; conditions: 1% glucose bouillon agar
Procedure: as §1

Red yeast = test: as above; conditions: 1% glucose bouillon agar
Procedure: as §1

Leptosphaeria salvinii = test: as above; conditions: Nakataea oryzae
Brewer's yeast = test: as above
[2] = system: mouse spontaneous myelolid leukemia M1 cells (resistant clone); test: Growth inhibition (GD50) of mouse leukemia M1 cells
[3] = system: Rauscher virus-induced promyelocytic leukemia cells R 453; test: Growth inhibition (GD50) of Rauscher virus-induced leukemia R 453 cells; conditions: Mus musculus
[4] = four successive population doublings of untreated cells, trypan blue, mean of four separate experiments

| Compound | MIC (Tetrahymena pyriformis W) | zone of inhibition at 2000 µg/mL (Cryptococcus neoformans) | IC50 [1, 4] | MIC (Pyricularia oryzae) | MIC (Cochliobolus miyabeanus) | MIC (Aspergillus) | MIC (Botrytis cinerea) | MIC (Gibberella fujikuroi) | MIC (Penicillium) | MIC (Red yeast) | MIC (Leptosphaeria salvinii) | MIC (Brewer's yeast) | further results |
| --- | --- | --- | --- | --- | --- | --- | --- | --- | --- | --- | --- | --- | --- |
| CCCCCCCCCCNC(=O)OCC(COP(=O)(O)OCCN)OC (stereo not drawn) [Example 28, 3-(N-Decylcarbamoyloxy)-2-methoxypropyl 2-aminoethyl phosphate] | 2 µg/mL | < 9 mm |  |  |  |  |  |  |  |  |  |  |  |
| CCCCCCCCCCCCCCCCCCNC(=O)OCC(COP(=O)([O-])OCC[n+]1ccsc1)OC (stereo not drawn) [Example 13, 3-(N-n-Octadecylcarbamoyloxy)-2-methoxypropyl 2-thiazolioethyl phosphate] | 2 to 4 µg/mL | 12 to 20 mm |  |  |  |  |  |  |  |  |  |  |  |
| CCCCC/C=C\C/C=C\CCCCCCCNC(=O)OCCCOP(=O)(O)OCCN [Example 22, 3-[8,11(Z,Z)-Heptadecadienylcarbamoyloxy]propyl 2-aminoethyl phosphate] | ≤ 1 µg/mL | 9 to 11 mm | 4.3 µg/mL |  |  |  |  |  |  |  |  |  |  |
| CCCCCCCCCCCCCNC(=O)OCCCOP(=O)([O-])OCC[N+](C)(C)C [Example 23, 3-(N-Tridecylcarbamoyloxy)propyl 2-trimethylammonioethyl phosphate] | ≤ 0.1 µg/mL | 12 to 20 mm |  | 6.25 µg/mL | 12.5 µg/mL | 12.5 µg/mL | 6.25 µg/mL | 25 µg/mL | 12.5 µg/mL | 12.5 µg/mL | 12.5 µg/mL | 12.5 µg/mL |  |
| CCCCCCCCCCCCNC(=O)OCCCOP(=O)([O-])OCC[N+](C)(C)C [Example 31, 3-N-Dodecylcarbamoyloxypropyl 2-trimethylammonioethyl phosphate] | ≤ 1 µg/mL | 12 to 20 mm |  | 12.5 µg/mL | 12.5 µg/mL | 12.5 µg/mL | 12.5 µg/mL | 50 µg/mL | 12.5 µg/mL | 25 µg/mL | 25 µg/mL | 12.5 µg/mL |  |
| CCCCCCCCCCCCCCCCCCNC(=O)OCCOP(=O)([O-])OCC[N+](C)(C)C [Example 15, 2-(N-Octadecylcarbamoyloxy)ethyl 2-trimethylammonioethyl phosphate] | 1 to 2 µg/mL | 12 to 20 mm | 2.3 µg/mL |  |  |  |  |  |  |  |  |  |  |
| CCCCC/C=C\C/C=C\CCCCCCCNC(=O)OCCOP(=O)([O-])OCC[N+](C)(C)C [Example 21, 2-[8,11(Z,Z)-Heptadecadienylcarbamoyloxy]ethyl 2-trimethylammonioethyl phosphate] | 2 µg/mL | 9 to 11 mm |  |  |  |  |  |  |  |  |  |  |  |
| COC1=C(OC)C(=O)C(CCCCCCCCCNC(=O)OCCCOP(=O)([O-])OCC[N+](C)(C)C)=C(C)C1=O [Example 8, 3-[N-(9-(2,3-Dimethoxy-6-methyl-1,4-benzoquinon-5-yl)nonyl)carbamoyloxy]propyl 2-trimethylammonioethyl phosphate] | 40 µg/mL |  |  |  |  |  |  |  |  |  |  |  |  |
| CCCCCCCCCCNC(=O)OCC(COP(=O)([O-])OCC[N+](C)(C)C)OC (stereo not drawn) [Example 29, 3-(N-Decylcarbamoyloxy)-2-methoxypropyl 2-trimethylammonioethyl phosphate] | 2 µg/mL | 9 to 11 mm |  |  |  |  |  |  |  |  |  |  |  |
| CCCCCCCCCCCCCCCCCCNC(=O)OCC(COP(=O)([O-])OCC[N+](C)(C)C)OC (stereo not drawn) [Example 11, 3-(N-n-Octadecylcarbamoyloxy)-2-methoxypropyl 2-trimethylammonioethyl phosphate] | 2 to 4 µg/mL | 12 to 20 mm | 0.6 µg/mL |  |  |  |  |  |  |  |  |  |  |
| CCCCCCCCCCCCCCNC(=O)OCCCOP(=O)([O-])OCC[N+](C)(C)C [Example 36, 3-N-Tetradecylcarbamoyloxypropyl 2-trimethylammonioethyl phosphate] | ≤ 1 µg/mL | > 20 mm |  | 3.12 µg/mL | 25 µg/mL | 12.5 µg/mL | 12.5 µg/mL | 12.5 µg/mL | 12.5 µg/mL | 25 µg/mL | 6.25 µg/mL | 6.25 µg/mL |  |
| CCC=CCC=CCC=CCCCCCCCNC(=O)OCCCOP(=O)([O-])OCC[N+](C)(C)C [Example 17, 3-(N-8,11,14-Heptadecatrienylcarbamoyloxy)propyl 2-trimethylammonioethyl phosphate] | ≤ 1 µg/mL | > 20 mm | 2 µg/mL | 25 µg/mL | 25 µg/mL | 50 µg/mL | 12.5 µg/mL | 50 µg/mL | 50 µg/mL | 100 µg/mL | 50 µg/mL | 100 µg/mL |  |
| 3-[8,11,14(Z,Z,Z)-Heptadecatrienylcarbamoyloxy]propyl 2-aminoethyl phosphate [Example 18] |  |  |  |  |  |  |  |  |  |  |  |  | Tetrahymena pyriformis W MIC (Tetrahymena pyriformis W): 2 to 4 µg/mL; Cryptococcus neoformans Zone of inhibition (Cryptococcus neoformans): + (12-20 mm) |
| CCCCCCCCCCCCCCCCCCNC(=O)OCC(COP(=O)([O-])OCC[n+]1ccccc1)OC (stereo not drawn) [Example 12, 3-(N-n-Octadecylcarbamoyloxy)-2-methoxypropyl 2-pyridinioethyl phosphate] | 4 µg/mL | 12 to 20 mm | 1 µg/mL |  |  |  |  |  |  |  |  |  |  |
| CCCCCCCCCCCCCCNC(=O)OCC(COP(=O)([O-])OCC[N+](C)(C)C)OC (stereo not drawn) [Example 26, 3-(N-Tetradecylcarbamoyloxy)-2-methoxypropyl 2-trimethylammonioethyl phosphate] | 0.2 µg/mL | 12 to 20 mm |  | 3.12 µg/mL | 12.5 µg/mL | 12.5 µg/mL | 3.12 µg/mL | 12.5 µg/mL | 12.5 µg/mL | 25 µg/mL |  |  | IC50 [1]: 2 to 3 µg/mL; MIC (Leptosphaeria salvinii; Leptosphaeria salvinii, 1% glucose bouillon agar, read-out: MIC): 6.25 µg/mL; MIC (Brewer's yeast; Brewer's yeast, 1% glucose bouillon agar, read-out: MIC): 6.25 µg/mL |
| CCCCCCCCCCCCNC(=O)OCCCOP(=O)(O)OCCN [Example 32] | ≤ 1 µg/mL | 12 to 20 mm |  |  |  |  |  |  |  |  |  |  |  |
| CCCCCCCCCCCCCCNC(=O)OCC(COP(=O)(O)OCCN)OC (stereo not drawn) [Example 25, 3-(N-Tetradecylcarbamoyloxy)-2-methoxypropyl 2-aminoethyl phosphate] | ≤ 1 µg/mL | > 20 mm |  | 6.25 µg/mL | > 100 µg/mL | 25 µg/mL | 6.25 µg/mL | 50 µg/mL | 25 µg/mL | 50 µg/mL | 100 µg/mL | 25 µg/mL | IC50 [1]: 2 to 3 µg/mL |
| CCCCCCCCCCCCCCCCCNC(=O)OCCCOP(=O)([O-])OCC[N+](C)(C)C [Example 4, 3-(N-n-Heptadecylcarbamoyloxy)propyl 2-trimethylammonioethyl phosphate] | 1 to 2 µg/mL | 12 to 20 mm |  | 6.25 µg/mL | > 100 µg/mL | > 100 µg/mL | 12.5 µg/mL | > 100 µg/mL | > 100 µg/mL | > 100 µg/mL | 50 µg/mL | > 100 µg/mL | IC50 [2]: 3 to 4 µg/mL; IC50 [3]: 2 to 3 µg/mL; IC50 [1]: 1 µg/mL |
| CCCCC/C=C\C/C=C\CCCCCCCNC(=O)OCCCOP(=O)([O-])OCC[N+](C)(C)C [Example 20] | 2 µg/mL (≈ 3.86 µM) | 12 to 20 mm | 4.8 µg/mL (≈ 9.25 µM) |  |  |  |  |  |  |  |  |  |  |
